In patent US12576047B2, “Telomerase activating compounds for use in fertility and related applications” (Neuromagen Pharma Ltd, priority 2017, dated 2026):

Tests used:
telomerase = biological target: T1, telomerase (Mus musculus, UniProt O70372); experiment: Telomerase activity in mouse ovary by TRAP assay after s.c. injection; assay type: in vivo; conditions: single dose 6 mg/Kg s.c., 12 hours
T1 construct: the ovaries were removed, and proteins extract used for measuring telomerase activity by TRAP assay; from tissue; host or cells: ovary of female ICR mice
T1 sequence (O70372 1-1122): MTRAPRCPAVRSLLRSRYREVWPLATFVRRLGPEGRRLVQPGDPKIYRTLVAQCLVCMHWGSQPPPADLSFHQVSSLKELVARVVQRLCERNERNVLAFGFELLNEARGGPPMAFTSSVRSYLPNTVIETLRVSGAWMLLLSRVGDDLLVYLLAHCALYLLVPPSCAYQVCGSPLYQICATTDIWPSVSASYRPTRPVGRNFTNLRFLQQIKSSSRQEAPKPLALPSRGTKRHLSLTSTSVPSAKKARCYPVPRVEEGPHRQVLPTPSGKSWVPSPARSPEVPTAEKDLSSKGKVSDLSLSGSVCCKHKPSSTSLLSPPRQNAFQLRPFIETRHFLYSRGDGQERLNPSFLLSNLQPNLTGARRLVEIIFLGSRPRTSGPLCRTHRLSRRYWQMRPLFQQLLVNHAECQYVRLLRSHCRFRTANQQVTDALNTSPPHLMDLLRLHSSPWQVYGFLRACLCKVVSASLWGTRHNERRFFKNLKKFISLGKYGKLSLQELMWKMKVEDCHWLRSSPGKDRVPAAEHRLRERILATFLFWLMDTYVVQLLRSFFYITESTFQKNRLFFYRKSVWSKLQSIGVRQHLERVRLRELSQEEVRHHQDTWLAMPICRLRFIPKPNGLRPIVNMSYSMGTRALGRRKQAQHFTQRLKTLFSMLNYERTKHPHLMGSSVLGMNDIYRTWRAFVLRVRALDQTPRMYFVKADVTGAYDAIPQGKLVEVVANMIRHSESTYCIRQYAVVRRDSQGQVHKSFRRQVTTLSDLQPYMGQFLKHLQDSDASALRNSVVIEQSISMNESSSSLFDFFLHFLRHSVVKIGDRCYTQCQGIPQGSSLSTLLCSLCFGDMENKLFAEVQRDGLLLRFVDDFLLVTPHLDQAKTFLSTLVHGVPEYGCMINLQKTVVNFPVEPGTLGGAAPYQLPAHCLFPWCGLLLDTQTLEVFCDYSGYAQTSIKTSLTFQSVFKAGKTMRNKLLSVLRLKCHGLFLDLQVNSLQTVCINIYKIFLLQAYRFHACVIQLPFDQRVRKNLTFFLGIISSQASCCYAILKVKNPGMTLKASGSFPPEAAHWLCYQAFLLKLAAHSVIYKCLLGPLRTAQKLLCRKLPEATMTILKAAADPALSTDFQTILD
Protocol: The ovaries were homogenized and centrifuged at 1200 RPM at 4° C. for 10 min, then suspended in CHAPS buffer (10 mM Tris-HCl pH-7.0, 1 mM MgCl2, 1 mM EDTA […], 0.1 mM PMSF, 0.5% 3 [(3 Cholamidopropyl)dimethylammonio]-propanesulfonic acid [CHAPS] and 10% glycerol) on ice for 30 min and centrifuged again at 13500 RPM at 4° C. for 30 min, the supernatant was collected. Total proteins concentration was determined using the Bio-Rad protein assay kit (Bio-Rad Laboratories, Germany).
Telomerase activity in mice ovary was evaluated by a slight modification of the TRAP assay [Grin, Y., T. Admoni, and E. Priel, Telomerase activity in the various regions of mouse brain: non-radioactive telomerase repeat amplification protocol (TRAP) assay. J Vis Exp, 2014 (91): p. e51865]. […] These products were separated on a 4.5% high-resolution agarose mini-gel and detected with Gel-Red solution (X10000 stock solution diluted to X3 working solution with 0.01M NaCl) for 20 minutes. […] Quantification of Telomerase Activity
TRAP assay products were quantified by densitometric analysis using the EZQuant software (EZQuant Ltd. Rehovot, Israel) and normalized to IS (Internal standard). […] The data which were normalized to the IS were calculated as % from the positive control values in each experiment. […]

female ICR mice = experiment: Estrous cycle stage by vaginal smears; assay type: in vivo, mouse
Protocol: Female ICR mice at least 3 months old were administered embodied compounds of this invention (Compound 79 and Compound 68) (6 mg/Kg) or DMSO alone (0.5%) by subcutaneous administration. Vaginal smears were taken at baseline and at 12 hours following the administration to determine estrous cycle stage and mice were then sacrificed.

[1] = injected at the diestrus or metestrus stages
[2] = single dose injected in the proestrus or estrus stages

Row | SMILES | increase of telomerase activity in mouse ovary (telomerase; all examined ages (10 days, 18 days, 1 month, 3 months)) | estrous cycle stage 12 hrs post treatment (female ICR mice; [1]) | estrous cycle stage 12 hrs post treatment (female ICR mice; [2]) | telomerase activity in mouse ovary at various ages (telomerase; ages 10 days to 3 months)
1 | CC(c1cc(Br)c(O)c(Br)c1)(c1cc(Br)c(O)c(Br)c1)c1cc(Br)c(O)c(Br)c1 [Compound 68] | up to 1.5 fold | No changes in the estrous cycle stage | in the metestrus stage | –
2 | CCOCc1cc(C(C)(c2cc(COCC)c(O)c(COCC)c2)c2cc(COCC)c(O)c(COCC)c2)cc(COCC)c1O [Compound 79] | – | No changes in the estrous cycle stage | in the metestrus stage | significantly increased telomerase activity only in the ovary of 3 months old mouse
